Reference: ChEMBL document CHEMBL4507297, “Data for DCP probe PF-04457845” (2021)

Key:
[1] = biological target: 5-hydroxytryptamine receptor 2C (Homo sapiens, UniProt P28335); experiment: GPCRScan assay: inhibition of 5-HT2C; design: radioligand conc. used [nm] 1.0 – 2.5, parental cells HEK T
[2] = GPCRScan assay: inhibition of GABA/PBR; design: species or system Rattus norvegicus; radioligand conc. used [nm] 0.3 – 2.0, parental cells brain tissue
[3] = biological target: Adrenergic receptor alpha-1 (Homo sapiens) (UniProt P35348+P25100+P35368); experiment: alpha1 (non-selective) CEREP ligand profiling; format: protein assay; conditions: Compound concentration 10.0 uM
[4] = biological target: T1, Alpha-2A adrenergic receptor (Homo sapiens) (UniProt P08913); experiment: alpha2A (h) CEREP ligand profiling; conditions: Compound concentration 10.0 uM
T1 sequence (whole entry): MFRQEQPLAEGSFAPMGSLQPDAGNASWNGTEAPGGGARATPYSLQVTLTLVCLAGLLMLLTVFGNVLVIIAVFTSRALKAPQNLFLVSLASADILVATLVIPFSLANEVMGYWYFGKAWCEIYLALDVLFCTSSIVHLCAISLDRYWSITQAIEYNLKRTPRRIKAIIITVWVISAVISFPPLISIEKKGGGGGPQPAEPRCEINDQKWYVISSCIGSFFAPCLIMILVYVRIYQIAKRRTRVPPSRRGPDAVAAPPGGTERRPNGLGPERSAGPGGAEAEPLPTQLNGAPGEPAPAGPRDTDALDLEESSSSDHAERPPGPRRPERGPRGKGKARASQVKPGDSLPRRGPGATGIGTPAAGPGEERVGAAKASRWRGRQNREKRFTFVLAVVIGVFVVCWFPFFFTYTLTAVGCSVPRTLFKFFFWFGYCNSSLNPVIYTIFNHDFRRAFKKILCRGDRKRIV

[5] = biological target: Glutamate receptor ionotropic, kainate 2 (Homo sapiens) (UniProt Q13002); experiment: Kainate CEREP ligand profiling; conditions: Compound concentration 10.0 uM
[6] = biological target: T2, 5-hydroxytryptamine receptor 2C (Homo sapiens) (UniProt P28335); experiment: 5-HT2C (h) (agonist site) CEREP ligand profiling; conditions: Compound concentration 10.0 uM
T2 sequence (whole entry): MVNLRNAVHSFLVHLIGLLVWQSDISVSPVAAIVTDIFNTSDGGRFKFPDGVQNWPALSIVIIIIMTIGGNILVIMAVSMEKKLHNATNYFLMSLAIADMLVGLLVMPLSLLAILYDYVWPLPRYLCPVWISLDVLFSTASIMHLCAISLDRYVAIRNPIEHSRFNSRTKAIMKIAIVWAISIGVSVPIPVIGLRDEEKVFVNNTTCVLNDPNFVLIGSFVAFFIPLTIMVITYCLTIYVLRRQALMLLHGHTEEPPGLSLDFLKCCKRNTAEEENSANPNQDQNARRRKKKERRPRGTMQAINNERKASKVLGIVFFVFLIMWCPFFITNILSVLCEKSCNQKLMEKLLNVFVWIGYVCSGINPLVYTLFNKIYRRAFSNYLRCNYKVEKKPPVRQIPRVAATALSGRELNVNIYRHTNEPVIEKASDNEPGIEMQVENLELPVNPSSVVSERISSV

[7] = biological target: High affinity choline transporter 1 (Homo sapiens) (UniProt Q9GZV3); experiment: Choline transporter (h) (CHT1) CEREP ligand profiling; conditions: Compound concentration 10.0 uM
[8] = biological target: Alpha-2B adrenergic receptor (Homo sapiens) (UniProt P18089); conditions: Compound concentration 10.0 uM
Alpha-2B adrenergic receptor (Homo sapiens), sequence (P18089 whole entry): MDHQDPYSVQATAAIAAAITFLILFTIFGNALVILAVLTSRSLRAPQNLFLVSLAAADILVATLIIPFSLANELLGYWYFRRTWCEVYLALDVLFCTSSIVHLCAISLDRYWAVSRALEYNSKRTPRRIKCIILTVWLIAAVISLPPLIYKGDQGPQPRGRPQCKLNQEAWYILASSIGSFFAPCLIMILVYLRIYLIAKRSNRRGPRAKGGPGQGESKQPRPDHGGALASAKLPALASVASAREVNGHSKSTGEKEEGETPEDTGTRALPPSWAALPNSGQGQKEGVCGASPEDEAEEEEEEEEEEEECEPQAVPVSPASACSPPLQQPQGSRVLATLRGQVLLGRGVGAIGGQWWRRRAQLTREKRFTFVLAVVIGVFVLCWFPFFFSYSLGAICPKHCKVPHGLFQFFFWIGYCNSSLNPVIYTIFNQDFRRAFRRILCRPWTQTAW

Glutamate receptor ionotropic, kainate 2 (Homo sapiens), sequence (Q13002 whole entry): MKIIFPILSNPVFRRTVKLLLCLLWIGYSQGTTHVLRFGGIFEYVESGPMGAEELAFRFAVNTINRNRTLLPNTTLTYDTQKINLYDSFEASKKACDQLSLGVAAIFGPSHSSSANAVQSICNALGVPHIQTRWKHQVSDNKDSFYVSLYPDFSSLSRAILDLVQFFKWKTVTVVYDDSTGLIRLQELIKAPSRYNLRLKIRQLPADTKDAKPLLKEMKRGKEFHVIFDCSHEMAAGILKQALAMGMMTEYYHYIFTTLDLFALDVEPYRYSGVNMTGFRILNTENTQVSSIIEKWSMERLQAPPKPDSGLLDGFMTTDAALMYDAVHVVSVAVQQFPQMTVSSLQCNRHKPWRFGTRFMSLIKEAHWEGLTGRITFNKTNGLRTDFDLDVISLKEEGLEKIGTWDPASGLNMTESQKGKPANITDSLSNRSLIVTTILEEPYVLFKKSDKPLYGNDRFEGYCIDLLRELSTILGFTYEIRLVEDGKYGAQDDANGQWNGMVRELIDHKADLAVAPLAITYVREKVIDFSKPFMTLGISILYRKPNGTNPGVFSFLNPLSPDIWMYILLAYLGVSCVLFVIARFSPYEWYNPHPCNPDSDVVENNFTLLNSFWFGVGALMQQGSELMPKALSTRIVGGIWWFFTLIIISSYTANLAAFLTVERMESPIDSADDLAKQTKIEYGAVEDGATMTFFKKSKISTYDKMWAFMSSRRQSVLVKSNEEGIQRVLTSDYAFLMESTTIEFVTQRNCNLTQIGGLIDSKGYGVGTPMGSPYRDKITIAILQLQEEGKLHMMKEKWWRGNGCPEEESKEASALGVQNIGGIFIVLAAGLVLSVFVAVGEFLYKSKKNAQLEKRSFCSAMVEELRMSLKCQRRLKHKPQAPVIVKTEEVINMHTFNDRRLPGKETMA
High affinity choline transporter 1 (Homo sapiens), sequence (Q9GZV3 whole entry): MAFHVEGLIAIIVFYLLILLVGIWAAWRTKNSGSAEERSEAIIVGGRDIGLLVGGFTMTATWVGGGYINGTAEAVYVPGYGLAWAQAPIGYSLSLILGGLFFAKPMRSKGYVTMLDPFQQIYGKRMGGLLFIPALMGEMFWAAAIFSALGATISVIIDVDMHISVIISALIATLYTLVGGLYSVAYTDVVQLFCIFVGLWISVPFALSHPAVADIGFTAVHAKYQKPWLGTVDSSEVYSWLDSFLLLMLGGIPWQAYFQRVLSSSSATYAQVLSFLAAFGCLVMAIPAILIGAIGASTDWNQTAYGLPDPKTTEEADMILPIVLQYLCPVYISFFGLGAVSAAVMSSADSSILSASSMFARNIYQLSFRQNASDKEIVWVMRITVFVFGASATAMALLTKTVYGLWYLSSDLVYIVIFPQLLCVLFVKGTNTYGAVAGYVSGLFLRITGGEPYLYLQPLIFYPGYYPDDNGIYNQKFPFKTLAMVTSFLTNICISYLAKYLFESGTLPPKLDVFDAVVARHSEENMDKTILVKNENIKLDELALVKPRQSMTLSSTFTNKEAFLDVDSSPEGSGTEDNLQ

## O=C(Nc1cccnn1)N1CCC(=Cc2cccc(Oc3ccc(C(F)(F)F)cn3)c2)CC1
[1]
  Ki: 1660 nM
[2]
  Ki: 1140 nM
  pKi: 5.94
[3]
  inhibition: -2%
[4]
  inhibition: -4%
[5]
  inhibition: 2%
[6]
  inhibition: -3%
[7]
  inhibition: 18%
[8]
  inhibition: 40%
